The record followed here is PubChem BioAssay (NCI).

Several values for one entry are separate records, joined by “and”; a condition that tells them apart may be missing. Equal entries are not always repeated.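 Five compound concentrations were applied to cells in 96-well plates for 48 hours; endpoints were derived by simple linear interpolation of the resulting dose-response curve. GI50 is the concentration that inhibits growth by half. TGI: total growth inhibition.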

In this experiment the test system is MDA-MB-468 breast. Nature of the experiment: NCI tumour cell line growth inhibition, 48 h.
On to `C=CN(C)S(C)(=O)=O`, for which the GI50 was greater than 100 µM and the TGI was greater than 100 µM.

As for `C[C@H]1[C@H]2[C@H]3CC[C@@H]4[C@@]5(C)C/C(=C/c6cccnc6)C(=O)C(C)(C)[C@@H]5CC[C@@]4(C)[C@]3(C)CC[C@]23CO[C@]1(C)[C@@H](C(=O)/C=C\c1cccnc1)C3`, the GI50 was 0.864 µM and the TGI was 2.39 µM.

Turning to `CC/C(=C(/c1ccc(O)cc1)c1ccc(OCCN2CCCCC2)cc1)c1ccc(OC)cc1`, the GI50 is 1.37 µM and the TGI stood at 3.22 µM.

Take `Cc1ncsc1-c1ccc(CNC(=O)[C@@H]2C[C@@H](O)CN2C(=O)[C@@H](NC(=O)C2(C#N)CC2)C(C)(C)C)cc1`: the GI50 was 54.5 µM and the TGI was greater than 100 µM.

For the compound `O=C(NO)c1ccc(Cn2c(=O)n(-c3ccccc3F)c(=O)c3ccccc32)cc1`, the GI50 is 1.18 µM and the TGI is 3.21 µM.

Turning to `CNC(=O)Oc1cc(C)c(/C=C/c2cncc(C(=O)NC)c2)c(C)c1`, the GI50 was 11 µM and the TGI is greater than 25 µM.

Regarding `CN(C)CCCNC(=O)c1cncnc1Nc1ccc(OCc2cccc(F)c2)c(Cl)c1`, the GI50 was 1.55 µM and the TGI worked out at 3.02 µM.

As to `O=C(NCc1ccncc1)C12CC3CC(C1)CC(c1ccc(Cl)cc1)(C3)C2`, the GI50 is 6.58 µM and the TGI is 21.1 µM.

In the case of `CN1CC(CNC(=O)OCc2ccccc2)CC2c3cccc4c3c(cn4C)CC21` (configuration not stated), the GI50 was 1.61 µM and the TGI was determined as 3.12 µM.

In the case of `Cc1cc(Oc2ccc3nc(COc4ccc(CC5SC(=O)NC5=O)cc4)n(C)c3c2)cc(C)c1N` (configuration not stated), the GI50 was 25.9 µM and the TGI is greater than 93.6 µM.

Regarding `COc1cccc2c1c(C1=C(c3cn(C)c4ccccc34)C(=O)NC1=O)cn2C`, the GI50 is greater than 25 µM and the TGI is greater than 25 µM.

For the compound `Nc1c(C(=O)c2ccc(CCCN3CCOCC3)cc2)cnn1-c1ccc(F)cc1`, the GI50 is 8.19 µM and the TGI is greater than 25 µM.

As to `Cc1ccc(-c2nc(N3CCCNCC3)c3oc(-c4ccccc4)nc3n2)cc1`, the GI50 was 1.55 µM and the TGI came out at 3.24 µM.

In the case of `COc1cc(-c2ncn(/C=C\C(=O)OC(C)C)n2)cc(C(F)(F)F)c1`, the GI50 was 0.126 µM and 0.141 µM; the TGI is 0.67 µM and 1.24 µM.

Regarding `COc1cc(-c2nn(-c3cccc(NC(=O)c4ccc(N5CCOCC5)c(C(F)(F)F)c4)c3)cc2-c2ccncc2)ccc1Cl`, the GI50 is 0.183 µM and the TGI worked out at 0.781 µM.

Consider `Cc1cc(O)cc(C)c1/C=C/c1cncc(-c2nn[nH]n2)c1`, for which the GI50 was greater than 25 µM and the TGI is greater than 25 µM.

As to `O=C1OC(c2ccccc2)(c2cc(Br)c(O)c(Br)c2)c2ccccc21` (configuration not stated), the GI50 is 27 µM and the TGI was determined as 90.9 µM.

For the compound `CCOC(=O)[C@@H](C)C[C@H](Cc1ccccc1)NC(=O)c1csc([C@@H](C[C@H](C(C)C)N(C)C(=O)[C@H](CC)NC(=O)[C@H]2CCCCN2C)OC(C)=O)n1`, the GI50 is less than 0.00167 µM and the TGI was greater than 12.6 µM.

For the compound `CCCCCCc1nc2nc(Cl)c(Cl)nc2[nH]1`, the GI50 is 2.9 µM and the TGI was greater than 100 µM.

Consider `O=S(=O)(Nc1cc(Cl)ccc1Cl)c1ccc(-c2cnc(C3CC3)o2)cc1`, for which the GI50 was 0.821 µM and the TGI turned out to be 30.1 µM.

On to `CCN(CC)CCNc1cc(-c2cccc(OC(F)(F)F)c2)nc2ccc(N3CCCC3)cc12`, for which the GI50 is 1.64 µM and 1.84 µM; the TGI is 3.18 µM and 3.61 µM.

`Cc1nc2cnc(N)c(C#Cc3cncc(C(=O)Nc4ccc(Cl)c(C(F)(F)F)c4)c3)c2nc1C`: the GI50 was 2.87 µM and the TGI came out at 11.6 µM.

Turning to `CCN(CC)CCCC(C)N=c1cc(Nc2cc(=NC(C)CCCN(CC)CC)c3cc(OC)ccc3o2)oc2ccc(OC)cc12` (configuration not stated), the GI50 was 0.543 µM and the TGI was determined as 1.19 µM.

Regarding `CCc1cc2c(cc1N1CCC(N3CCOCC3)CC1)C(C)(C)c1[nH]c3cc(C#N)ccc3c1C2=O`, the GI50 was 1.8 µM and 2.05 µM and 2.14 µM; the TGI is 5.25 µM and 5.67 µM and 7.85 µM.

As for `O=C(/C(=C/c1ccc([N+](=O)[O-])cc1)SCc1ccc(F)cc1)c1ccc(Cl)cc1`, the GI50 was 9.46 µM and the TGI was determined as 38.7 µM.

Take `C/C(=C(\c1ccc(OCCN2CCCCCC2)cc1)c1ccc(OC(=O)Cc2ccccc2)cc1)c1ccc(Cl)cc1`: the GI50 was 1.99 µM and the TGI is 4.38 µM.

In the case of `O=C(Nc1nc2ccc(F)cc2s1)c1cccnc1Nc1ccc(Cl)cc1`, the GI50 is 1.61 µM and the TGI is greater than 100 µM.

Consider `CCc1ccc2c(c1)N(CCO)C1=C(C(=O)OC1)C2c1cccc(Cl)c1` (configuration not stated), for which the GI50 is 0.239 µM and the TGI was determined as 0.861 µM.

In the case of `COc1ccc(-c2c(-c3cc(OC)c(OC)c(OC)c3)noc2N)cc1`, the GI50 is less than 0.0143 µM and the TGI was found to be 1.1 µM.

In the case of `COc1cnc2c(c1)C(=O)c1c-2n(CCCNC(C)C)c(=O)c2cc(F)ccc12`, the GI50 is 0.226 µM and the TGI worked out at 0.702 µM.

`c1ccc(CN=C(NCc2ccccc2)NCc2ccccc2)cc1`: the GI50 was 2.29 µM and the TGI worked out at 5.38 µM.

With `COc1cc(OC)c(NC(=O)c2cc3ccccc3cc2O)cc1Cl`, the GI50 is 3.12 µM and the TGI is 8.24 µM.

`CC1=C([Te]c2ccc(O)cc2)C(=O)c2ccccc2C1=O`: the GI50 was 0.697 µM and the TGI worked out at 2.17 µM.

In the case of `COc1ccc(-c2nc(N3CCN(C(=O)C4CCCCC4)CC3)c3c4c(sc3n2)CCCC4)cc1`, the GI50 is 29.1 µM and the TGI was greater than 100 µM.

In the case of `CCS(=O)(=O)Nc1cccc(Nc2c3cccc(C)c3nc3c(C)cccc23)c1OC`, the GI50 is 2.24 µM and the TGI turned out to be 25.5 µM.

Turning to `COC(=O)[C@H](Cc1ccc(O)cc1)NC(=O)[C@@H](OC)[C@@H]1Cc2cc3cc(OC4CC(OC5CC(O)C(O)C(C)O5)C(O)C(C)O4)c(C)c(O)c3c(O)c2C(=O)[C@H]1OC1CC(OC2CC(OC3CC(C)(O)C(O)C(C)O3)C(O)C(C)O2)C(O)C(C)O1` (some centres not stated), the GI50 is 0.0672 µM and the TGI stood at 0.839 µM.
